This is an account of results in US10442796B2, “2,3,5-substituted thiophene compound as protein kinase inhibitor” (KOREA INSTITUTE OF SCIENCE AND TECHNOLOGY, priority 2016, dated 2019).

What is called IC50 is the concentration needed to halve the response being measured.

What all share (experiment): Growth inhibitory activity against Ba/F3 cell line
Common to all, as to assay type: cell-based

In one assay the test system is Parental Ba/F3 cells. To be noted: BaF3; Parental Ba/F3 with mouse IL-3 1 ng/mL; 72 hours; cell titer glo. As to the method: (§1) A Ba/F3 cell line expressing an FLT3 mutation gene was cultured in a culture solution including 90% RPMI, 10% FBS, and an antibiotic (Welgene). 100 uL of the Ba/F3 cell line was put into each of 5,000 wells of a TC-treated 96 well plate (SPL), and then 1 uL of a test compound diluted in dimethylsulfoxide (diluted for each 3 paint from a concentration of 1 mM, total 10 concentrations) was each injected thereinto. Thereafter, the resulting cell lines were incubated in a cell culture incubator for 72 hours. 50 uL of a cell titer glo (Promega) solution was added thereto, the resulting mixture was stored at room temperature for 10 minutes, and then the light emission intensity was measured by using a reader (Envision, PerkinElmer). The light emission intensity was shown as a graph for each final concentration of the test compound, and the GI50 value was obtained by using a Prism 5.0 (GraphPad) software.
A parental Ba/F3 cell line having no FLT3 mutation gene was cultured by using a culture solution supplemented with mouse IL-3 (R&D Systems), such that a final concentration became 1 ng/mL in the culture solution including 90% RPMI, 10% FBS, and an antibiotic (Welgene). The activity was measured by a method which is the same as described above.

The target of assay [1] is T1, FLT3-ITD-F691L-D835Y Ba/F3 cells (Homo sapiens, UniProt P36888, F691L/D835Y, cells depend on it, form not given).
T1 sequence (P36888 1-993 F691L/D835Y): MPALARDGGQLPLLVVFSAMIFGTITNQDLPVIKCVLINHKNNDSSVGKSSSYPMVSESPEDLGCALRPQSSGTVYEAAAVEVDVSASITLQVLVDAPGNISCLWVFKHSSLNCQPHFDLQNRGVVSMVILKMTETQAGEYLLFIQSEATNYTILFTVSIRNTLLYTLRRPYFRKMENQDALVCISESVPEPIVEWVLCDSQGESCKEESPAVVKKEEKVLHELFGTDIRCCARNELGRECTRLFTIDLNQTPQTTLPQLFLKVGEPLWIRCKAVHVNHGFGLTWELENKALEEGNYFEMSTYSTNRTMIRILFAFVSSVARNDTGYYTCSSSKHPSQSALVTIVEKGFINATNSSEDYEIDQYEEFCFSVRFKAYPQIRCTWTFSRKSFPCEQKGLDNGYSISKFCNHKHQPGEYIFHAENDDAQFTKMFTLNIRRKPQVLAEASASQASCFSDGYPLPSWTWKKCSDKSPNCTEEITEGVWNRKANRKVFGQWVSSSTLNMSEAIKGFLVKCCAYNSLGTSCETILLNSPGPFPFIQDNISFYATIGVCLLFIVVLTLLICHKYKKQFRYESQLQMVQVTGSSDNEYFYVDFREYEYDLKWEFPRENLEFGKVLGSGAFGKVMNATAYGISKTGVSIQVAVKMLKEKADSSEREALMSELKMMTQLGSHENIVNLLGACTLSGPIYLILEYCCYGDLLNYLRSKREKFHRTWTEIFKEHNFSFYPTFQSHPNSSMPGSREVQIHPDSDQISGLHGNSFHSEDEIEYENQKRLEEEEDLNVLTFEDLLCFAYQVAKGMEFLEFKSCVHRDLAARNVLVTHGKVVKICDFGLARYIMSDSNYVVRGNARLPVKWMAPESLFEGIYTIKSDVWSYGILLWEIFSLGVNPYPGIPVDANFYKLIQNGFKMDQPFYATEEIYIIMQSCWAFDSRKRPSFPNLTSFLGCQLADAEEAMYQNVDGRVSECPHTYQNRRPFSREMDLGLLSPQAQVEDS
The settings on record: Ba/F3 expressing FLT3-ITD-F691L-D835Y; 72 hours; cell titer glo; read-out: IC50 (uM) FLT3-ITD-F691L-D835Y. How it is done:
as §1

Assay [2] has as its target T2, FLT3-ITD-F691L Ba/F3 cells (Homo sapiens, UniProt P36888, F691L, cells depend on it, form not given).
T2 sequence (P36888 1-993 F691L): T1 sequence (P36888 1-993 F691L/D835Y) with Y835D
The settings on record: Ba/F3 expressing FLT3-ITD-F691L; 72 hours; cell titer glo; read-out: IC50 (uM) FLT3-ITD-F691L. How it is done: as §1

Changes are numbered by the printed parent chain. Where a name gives a salt, the structure may show the parent alone.

Regarding `NC(=O)Nc1cc(C#Cc2cccc(F)c2)sc1C(=O)NC1CCNC1` (stereo not drawn) [Example 40, 5-((3-fluorophenyl)ethynyl)-N-(pyrrolidin-3-yl)-3-ureidothiophene-2-carboxamide], the IC50 with Parental Ba/F3 cells is 14.9 µM. Also, the GI50 stood at 0.079 µM in assay [1] and 0.848 µM in assay [2].
Turning to `NC(=O)Nc1cc(C#Cc2cccc(F)c2)sc1C(=O)N[C@H]1CCCCNC1` [Example 50, (S)—N-(azepan-3-yl)-5-((3-fluorophenyl)ethynyl)-3-ureidothiophene-2-carboxamide], the IC50 in the assay on Parental Ba/F3 cells is 7.8 µM. The GI50 in assay [1] amounted to 0.006 µM; in assay [2], 0.174 µM.
The corresponding values for `CC(C)n1cc(C#Cc2cc(NC(N)=O)c(C(=O)N[C@H]3CCCCNC3)s2)cn1` [Example 44, (S)—N-(azepan-3-yl)-5-((1-isopropyl-1H-pyrazol-4-yl)ethynyl)-3-ureidothiophene-2-carboxamide trifluoroacetate] are 2.45 µM, 0.004 µM and 0.214 µM.
For `NC(=O)Nc1cc(C#Cc2ccc(F)cc2)sc1C(=O)N[C@H]1CCCNC1` [Example 9, (S)-5-((4-fluorophenyl)ethynyl)-N-(piperidin-3-yl)-3-ureidothiophene-2-carboxamide], in that order: 0.429 µM, less than 0.001 µM and 0.005 µM.
For `Cc1ccc(C#Cc2cc(NC(N)=O)c(C(=O)N[C@H]3CCCNC3)s2)cc1` [Example 24, (S)—N-(piperidin-3-yl)-5-(p-tolylethynyl)-3-ureidothiophene-2-carboxamide], in that order: 1.29 µM, 0.002 µM and 0.058 µM.
Regarding `CS(=O)(=O)N1CCC(n2cc(C#Cc3cc(NC(N)=O)c(C(=O)N[C@H]4CCCNC4)s3)cn2)CC1` [Example 23, (S)-5-((1-(1-(methylsulfonyl)piperidin-4-yl)-1H-pyrazol-4-yl)ethynyl)-N-(piperidin-3-yl)-3-ureidothiophene-2-carboxamide], in the assay on Parental Ba/F3 cells, the IC50 was greater than 5 µM. In addition, the GI50 in assay [1] was 0.02 µM; in assay [2], 0.267 µM.
As to `Cn1cc(C#Cc2cc(NC(N)=O)c(C(=O)N[C@H]3CCCCNC3)s2)cn1` [Example 41, (S)—N-(azepan-3-yl)-5-((1-methyl-1H-pyrazol-4-yl)ethynyl)-3-ureidothiophene-2-carboxamide trifluoroacetate], in the assay on Parental Ba/F3 cells, the IC50 is 3.69 µM. Further, the GI50 in assay [1] was determined as 0.007 µM; in assay [2], 0.078 µM.
For `NC(=O)Nc1cc(CCc2cccc(F)c2)sc1C(=O)N[C@H]1CCCNC1` [Example 53], in that order: 44.5 µM, 0.149 µM and 1.39 µM.
On to `COCCn1cc(C#Cc2cc(NC(N)=O)c(C(=O)N[C@H]3CCCCNC3)s2)cn1` [Example 45, (S)—N-(azepan-3-yl)-5-((1-(2-methoxyethyl)-1H-pyrazol-4-yl)ethynyl)-3-ureidothiophene-2-carboxamide trifluoroacetate], for which the IC50 with Parental Ba/F3 cells is 16.8 µM. In addition, the GI50 in assay [1] is 0.019 µM; in assay [2], 1.34 µM.
For `NC(=O)Nc1cc(C#Cc2ccc(Cl)cc2)sc1C(=O)N[C@H]1CCCNC1` [Example 8, (S)-5-((4-chlorophenyl)ethynyl)-N-(piperidin-3-yl)-3-ureidothiophene-2-carboxamide], in that order: 0.36 µM, less than 0.001 µM and 0.013 µM.
For `NC(=O)Nc1cc(C#Cc2cn[nH]c2)sc1C(=O)N[C@H]1CCCCNC1` [Example 42, (S)-5-((1H-pyrazol-4-yl)ethynyl)-N-(azepan-3-yl)-3-ureidothiophene-2-carboxamide trifluoroacetate], the IC50 in the assay with Parental Ba/F3 cells was 54.4 µM. Besides, the GI50 is 0.116 µM in assay [1] and 5.23 µM in assay [2].
The corresponding values for `NC(=O)Nc1cc(C#Cc2ccsc2)sc1C(=O)N[C@H]1CCCCNC1` [Example 48, (S)—N-(azepan-3-yl)-5-(thiophen-3-ylethynyl)-3-ureidothiophene-2-carboxamide trifluoroacetate] are 1.59 µM, 0.004 µM and 0.083 µM.
As for `Cn1cc(C#Cc2cc(NC(N)=O)c(C(=O)NC3CCNC3)s2)cn1` (stereo not drawn) [Example 39, 5-((1-methyl-1H-pyrazol-4-yl)ethynyl)-N-(pyrrolidin-3-yl)-3-ureidothiophene-2-carboxamide trifluoroacetate], the IC50 in the assay on Parental Ba/F3 cells was greater than 100 µM. The GI50 in assay [1] was 1.24 µM; in assay [2], 19.1 µM.
The corresponding values for `COC(=O)c1ccc(C#Cc2cc(NC(N)=O)c(C(=O)N[C@H]3CCCNC3)s2)cc1` [Example 18, methyl (S)-4-((5-(piperidin-3-ylcarbamoyl)-4-ureidothiophen-2-yl)ethynyl)benzoate trifluoroacetate] are 0.454 µM, less than 0.001 µM and 0.023 µM.
The corresponding values for `NC(=O)Nc1cc(C#Cc2ccc(C(F)(F)F)cc2)sc1C(=O)N[C@H]1CCCNC1` [Example 16, ((S)—N-(piperidin-3-yl)-5-((4-(trifluoromethyl)phenyl)ethynyl)-3-ureidothiophene-2-carboxamide trifluoroacetate] are 14.8 µM, 0.004 µM and 0.335 µM.
The corresponding values for `CS(=O)(=O)N1CCC(n2cc(C#Cc3cc(NC(N)=O)c(C(=O)N[C@H]4CCCCNC4)s3)cn2)CC1` [Example 47, (S)—N-(azepan-3-yl)-5-((1-(1-(methylsulfonyl)piperidin-4-yl)-1H-pyrazol-4-yl)ethynyl)-3-ureidothiophene-2-carboxamide trifluoroacetate] are greater than 5 µM, 0.04 µM and 0.645 µM.
